ChEMBL document CHEMBL2380193, “New trifluoromethyl quinolone derivatives: synthesis and investigation of antimicrobial properties” (2013)
In brackets after ≈: the same amount, converted by molar mass.

Legend:
Aspergillus fumigatus [1] = assay: Antifungal activity against Aspergillus fumigatus MTCC 343 after 30 hrs by serial dilution method; type: functional; settings: MTCC 343, 30 h
Aspergillus flavus [2] = assay: Antifungal activity against Aspergillus flavus MTCC 277 after 30 hrs by serial dilution method; type: functional; settings: MTCC 277, 30 h
Klebsiella pneumoniae [3] = assay: Antibacterial activity against Klebsiella pneumoniae MTCC 432 after 14 hrs by serial dilution method; type: functional; settings: MTCC 432, 14 h
Aspergillus niger [4] = assay: Antifungal activity against Aspergillus niger MTCC 282 assessed as zone of inhibition at 100 ug/ml after 30 hrs by cup plate method; type: functional; settings: MTCC 282, 30 h, read-out: IZ
Staphylococcus aureus [5] = assay: Antibacterial activity against Staphylococcus aureus MTCC 096 assessed as zone of inhibition at 100 ug/ml after 14 hrs by cup plate method; type: functional; settings: MTCC 096, 14 h, read-out: IZ
Klebsiella pneumoniae [6] = assay: Antibacterial activity against Klebsiella pneumoniae MTCC 432 assessed as zone of inhibition at 100 ug/ml after 14 hrs by cup plate method; type: functional; settings: MTCC 432, 14 h, read-out: IZ
Candida albicans [7] = assay: Antifungal activity against Candida albicans MTCC 227 assessed as zone of inhibition at 100 ug/ml after 30 hrs by cup plate method; type: functional; settings: MTCC 227, 30 h, read-out: IZ
Aspergillus niger [8] = assay: Antifungal activity against Aspergillus niger MTCC 282 after 30 hrs by serial dilution method; type: functional; settings: MTCC 282, 30 h
Bacillus subtilis [9] = assay: Antibacterial activity against Bacillus subtilis MTCC 441 assessed as zone of inhibition at 100 ug/ml after 14 hrs by cup plate method; type: functional; settings: MTCC 441, 14 h, read-out: IZ
Bacillus subtilis [10] = assay: Antibacterial activity against Bacillus subtilis MTCC 441 after 14 hrs by serial dilution method; type: functional; settings: MTCC 441, 14 h
Escherichia coli [11] = assay: Antibacterial activity against Escherichia coli MTCC 443 assessed as zone of inhibition at 100 ug/ml after 14 hrs by cup plate method; type: functional; settings: MTCC 443, 14 h, read-out: IZ
Salmonella typhi [12] = assay: Antibacterial activity against Salmonella typhi MTCC 733 after 14 hrs by serial dilution method; type: functional, Salmonella enterica subsp. enterica serovar Typhi; settings: Salmonella enterica, MTCC 733, 14 h
Salmonella typhi [13] = assay: Antibacterial activity against Salmonella typhi MTCC 733 assessed as zone of inhibition at 100 ug/ml after 14 hrs by cup plate method; type: functional, Salmonella enterica subsp. enterica serovar Typhi; settings: Salmonella enterica, MTCC 733, 14 h; read-out: IZ
Escherichia coli [14] = assay: Antibacterial activity against Escherichia coli MTCC 443 after 14 hrs by serial dilution method; type: functional; settings: MTCC 443, 14 h
Aspergillus fumigatus [15] = assay: Antifungal activity against Aspergillus fumigatus MTCC 343 assessed as zone of inhibition at 100 ug/ml after 30 hrs by cup plate method; type: functional; settings: MTCC 343, 30 h, read-out: IZ
Aspergillus flavus [16] = assay: Antifungal activity against Aspergillus flavus MTCC 277 assessed as zone of inhibition at 100 ug/ml after 30 hrs by cup plate method; type: functional; settings: MTCC 277, 30 h, read-out: IZ
Candida albicans [17] = assay: Antifungal activity against Candida albicans MTCC 227 after 30 hrs by serial dilution method; type: functional; settings: MTCC 227, 30 h
Staphylococcus aureus [18] = assay: Antibacterial activity against Staphylococcus aureus MTCC 096 after 14 hrs by serial dilution method; type: functional; settings: MTCC 096, 14 h

SMILES: O=C1c2ccccc2C(=O)N1CCCCn1c(C(F)(F)F)cc(=O)c2ccccc21
- MIC (Aspergillus fumigatus [1]): 25 µg/mL (≈ 60.3 µM)
- MIC (Aspergillus flavus [2]): 25 µg/mL (≈ 60.3 µM)
- MIC (Klebsiella pneumoniae [3]): 12.5 µg/mL (≈ 30.2 µM)
- zone of inhibition at 100 µg/mL (Aspergillus niger [4]): 13 mm
- zone of inhibition at 100 µg/mL (Staphylococcus aureus [5]): 13 mm
- zone of inhibition at 100 µg/mL (Klebsiella pneumoniae [6]): 13 mm
- zone of inhibition at 100 µg/mL (Candida albicans [7]): 17 mm
- MIC (Aspergillus niger [8]): 12.5 µg/mL (≈ 30.2 µM)
- zone of inhibition at 100 µg/mL (Bacillus subtilis [9]): 12 mm
- MIC (Bacillus subtilis [10]): 12.5 µg/mL (≈ 30.2 µM)
- zone of inhibition at 100 µg/mL (Escherichia coli [11]): < 10 mm
- MIC (Salmonella typhi [12]): 25 µg/mL (≈ 60.3 µM)
- zone of inhibition at 100 µg/mL (Salmonella typhi [13]): < 10 mm
- MIC (Escherichia coli [14]): 50 µg/mL (≈ 121 µM)
- zone of inhibition at 100 µg/mL (Aspergillus fumigatus [15]): < 10 mm
- zone of inhibition at 100 µg/mL (Aspergillus flavus [16]): < 10 mm
- MIC (Candida albicans [17]): 6.25 µg/mL (≈ 15.1 µM)
- MIC (Staphylococcus aureus [18]): 12.5 µg/mL (≈ 30.2 µM)

SMILES: O=C1c2ccccc2C(=O)N1CCCCn1c(C(F)(F)F)cc(=O)c2cc(F)ccc21
- MIC (Aspergillus fumigatus [1]): 12.5 µg/mL (≈ 28.9 µM)
- MIC (Aspergillus flavus [2]): 25 µg/mL (≈ 57.8 µM)
- MIC (Klebsiella pneumoniae [3]): 12.5 µg/mL (≈ 28.9 µM)
- zone of inhibition at 100 µg/mL (Aspergillus niger [4]): 17 mm
- zone of inhibition at 100 µg/mL (Staphylococcus aureus [5]): 15 mm
- zone of inhibition at 100 µg/mL (Klebsiella pneumoniae [6]): 13 mm
- zone of inhibition at 100 µg/mL (Candida albicans [7]): 17 mm
- MIC (Aspergillus niger [8]): 6.25 µg/mL (≈ 14.5 µM)
- zone of inhibition at 100 µg/mL (Bacillus subtilis [9]): 13 mm
- MIC (Bacillus subtilis [10]): 12.5 µg/mL (≈ 28.9 µM)
- zone of inhibition at 100 µg/mL (Escherichia coli [11]): < 10 mm
- MIC (Salmonella typhi [12]): 12.5 µg/mL (≈ 28.9 µM)
- zone of inhibition at 100 µg/mL (Salmonella typhi [13]): 13 mm
- MIC (Escherichia coli [14]): 50 µg/mL (≈ 116 µM)
- zone of inhibition at 100 µg/mL (Aspergillus fumigatus [15]): 12 mm
- zone of inhibition at 100 µg/mL (Aspergillus flavus [16]): < 10 mm
- MIC (Candida albicans [17]): 6.25 µg/mL (≈ 14.5 µM)
- MIC (Staphylococcus aureus [18]): 6.25 µg/mL (≈ 14.5 µM)

SMILES: Cc1ccc2c(c1)c(=O)cc(C(F)(F)F)n2CCCCN1C(=O)c2ccccc2C1=O
- MIC (Aspergillus fumigatus [1]): 25 µg/mL (≈ 58.4 µM)
- MIC (Aspergillus flavus [2]): 12.5 µg/mL (≈ 29.2 µM)
- MIC (Klebsiella pneumoniae [3]): 12.5 µg/mL (≈ 29.2 µM)
- zone of inhibition at 100 µg/mL (Aspergillus niger [4]): 12 mm
- zone of inhibition at 100 µg/mL (Staphylococcus aureus [5]): 15 mm
- zone of inhibition at 100 µg/mL (Klebsiella pneumoniae [6]): 13 mm
- zone of inhibition at 100 µg/mL (Candida albicans [7]): 15 mm
- MIC (Aspergillus niger [8]): 12.5 µg/mL (≈ 29.2 µM)
- zone of inhibition at 100 µg/mL (Bacillus subtilis [9]): 15 mm
- MIC (Bacillus subtilis [10]): 6.25 µg/mL (≈ 14.6 µM)
- zone of inhibition at 100 µg/mL (Escherichia coli [11]): < 10 mm
- MIC (Salmonella typhi [12]): 12.5 µg/mL (≈ 29.2 µM)
- zone of inhibition at 100 µg/mL (Salmonella typhi [13]): 13 mm
- MIC (Escherichia coli [14]): 25 µg/mL (≈ 58.4 µM)
- zone of inhibition at 100 µg/mL (Aspergillus fumigatus [15]): < 10 mm
- zone of inhibition at 100 µg/mL (Aspergillus flavus [16]): 12 mm
- MIC (Candida albicans [17]): 6.25 µg/mL (≈ 14.6 µM)
- MIC (Staphylococcus aureus [18]): 6.25 µg/mL (≈ 14.6 µM)
